According to ChEMBL document CHEMBL1201862, “PubChem BioAssay data set” (2004):
The source made the active and inactive calls. For most assays here, no stated cut-off is given here; in the data, actives have a measured EC50 and inactives only a lower limit.

Key:
Bcl-2-like protein 1 = Bcl-2-like protein 1 (Homo sapiens, UniProt Q07817); assay: BCL-XL inhibitors, dose response, selectivity assay for MCL1 inhibitor project, biochemical, fluorescence polarization, 1536-well (AID 2218)
[1] = molecular target: Induced myeloid leukemia cell differentiation protein Mcl-1 (Homo sapiens, UniProt Q07820); assay: MCL1-BIM BH3 interaction inhibitors, dose response, biochemical, fluorescence polarization, BIM-BH3 peptide, 1536-well (AID 2217)
Chain of Induced myeloid leukemia cell differentiation protein Mcl-1 (Q07820 whole entry): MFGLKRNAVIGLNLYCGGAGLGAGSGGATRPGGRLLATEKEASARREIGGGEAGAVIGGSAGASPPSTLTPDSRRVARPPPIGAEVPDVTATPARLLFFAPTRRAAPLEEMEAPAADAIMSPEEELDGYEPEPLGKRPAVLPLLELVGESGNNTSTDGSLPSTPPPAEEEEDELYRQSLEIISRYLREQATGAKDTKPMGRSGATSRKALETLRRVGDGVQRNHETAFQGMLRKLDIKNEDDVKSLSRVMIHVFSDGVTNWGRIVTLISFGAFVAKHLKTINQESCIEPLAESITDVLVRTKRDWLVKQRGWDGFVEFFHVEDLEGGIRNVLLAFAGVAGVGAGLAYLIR

[2] = NIH-3T3 fibroblast cytotoxicity, dose response, cytotoxicity control, cell-based, fluorescence, Alamar Blue, secondary assay (AID 2327); format: functional;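 further: NIH-3T3 mouse fibroblasts cultured with fluconazole at 8 µg/mL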
[3] = C. albicans growth with fluconazole, confirmation, fluorescence, retest (AID 2467); format: functional, cell-based
cells = format: functional, cell-based
BJ [4] = assay: cytotoxicity toward Ras-transformed BJeLR fibroblasts, dose response, cell-based, alamar blue fluorescence, cherrypicked samples (AID 2631); format: functional; details: Homo sapiens;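 further: confirmatory dose-response assay in RAS-dependent BJ fibroblasts engineered with TERT, LT and ST, with cytotoxicity read by fluorescence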
[5] = molecular target: T1, Nuclear receptor subfamily 0 group B member 1 (Homo sapiens, UniProt P51843); format: functional, cell-based;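 further: HEK293T cells transfected with SF-1 and DAX-1 plus StAR promoter luciferase reporter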
T1 sequence (P51843 whole entry): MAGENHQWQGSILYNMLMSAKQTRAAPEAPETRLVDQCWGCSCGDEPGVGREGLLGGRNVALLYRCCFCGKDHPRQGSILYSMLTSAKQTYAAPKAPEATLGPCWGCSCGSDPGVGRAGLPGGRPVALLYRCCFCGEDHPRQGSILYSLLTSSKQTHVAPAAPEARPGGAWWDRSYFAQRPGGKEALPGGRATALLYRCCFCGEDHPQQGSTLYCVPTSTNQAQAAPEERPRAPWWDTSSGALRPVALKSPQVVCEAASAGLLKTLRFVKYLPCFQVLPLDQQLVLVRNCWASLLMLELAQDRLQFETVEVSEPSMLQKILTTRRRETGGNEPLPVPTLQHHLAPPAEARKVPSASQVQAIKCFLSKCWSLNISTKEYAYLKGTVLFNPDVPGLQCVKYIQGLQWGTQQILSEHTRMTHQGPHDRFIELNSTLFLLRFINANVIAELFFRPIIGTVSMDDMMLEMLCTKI

BJ [6] = assay: cells; format: functional, cell-based; details: Homo sapiens
[7] = cytotoxicity toward DRD oncogenic fibroblasts, dose response, cell-based, non-viral oncogenic, luminescence (AID 1934); format: functional; details: Homo sapiens
[8] = Luminescence-based dose response cell-based high throughput screening assay for cytotoxic compounds using the IEC-6 intestinal epithelial cell line. [Related pubchem assays: 1858 (Summary AID.), 1825 (Counterscreen.), 1907 (Confirmation screen.)]; format: functional
BJ [9] = assay: cytotoxicity toward BJ-TERT fibroblasts, dose response, cell-based, RAS-independent, luminescence (AID 1933); format: functional; details: Homo sapiens

Chain of Bcl-2-like protein 1 (Q07817 whole entry): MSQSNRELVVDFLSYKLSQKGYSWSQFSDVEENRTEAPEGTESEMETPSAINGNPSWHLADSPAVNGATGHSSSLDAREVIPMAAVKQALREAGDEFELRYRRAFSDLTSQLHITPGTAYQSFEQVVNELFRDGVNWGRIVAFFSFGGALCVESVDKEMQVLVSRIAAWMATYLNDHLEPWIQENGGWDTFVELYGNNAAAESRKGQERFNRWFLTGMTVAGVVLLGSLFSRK

## CC12CCC(C(=O)N(NC(=O)c3ccccc3O)C1=O)C2(C)C (stereo unspecified)
Bcl-2-like protein 1
  IC50: > 109000 nM (not active)
[1]
  IC50: > 109000 nM (not active)
[2]
  EC50: > 160000 nM (inactive)
[3]
  EC50: > 38000 nM (not active)

## N#Cc1c(NC(=O)/C=C/c2ccco2)sc2c1CCCC2
cells
  IC50: > 67600 nM (inactive)
BJ [4]
  EC50: < 104 nM (active)
[5]
  IC50: 1430 nM (active)
BJ [6]
  EC50: 1480 nM (inconclusive)
[7]
  EC50: 278 nM (active)
[8]
  IC50: 136 nM (active)
BJ [9]
  EC50: 181 nM (active)
